Measured values as given in ChEMBL document CHEMBL3797190, “Development of 3,5-Dinitrobenzylsulfanyl-1,3,4-oxadiazoles and Thiadiazoles as Selective Antitubercular Agents Active Against Replicating and Nonreplicating Mycobacterium tuberculosis” (J Med Chem, 2016).
Converted amounts (≈) assume the structure as drawn.

Key:
[1] = Cytotoxicity against human HuH7 cells assessed as cell viability at 20 uM after 24 hrs by MTS assay; assay type: cell-based, Huh-7; conditions: read-out: Activity
Mycobacterium avium [2] = assay: Antimycobacterial activity against Mycobacterium avium CNCTC My 330/88 after 14 days by microdilution method; assay type: functional; conditions: CNCTC My 330/88, 336 h
HeLa [3] = assay: Cytotoxicity against human HeLa cells assessed as cell viability after 24 hrs by MTS assay; assay type: cell-based
[4] = tested on: Mycobacterium tuberculosis; assay: Antimycobacterial activity against Mycobacterium tuberculosis CNCTC My 331/88 after 21 days by microdilution method; assay type: functional; conditions: CNCTC My 331/88, 504 h
Mycobacterium avium [5] = assay: Antimycobacterial activity against Mycobacterium avium CNCTC My 330/88 after 21 days by microdilution method; assay type: functional; conditions: CNCTC My 330/88, 504 h
Mycobacterium kansasii [6] = assay: Antimycobacterial activity against Mycobacterium kansasii CNCTC My 235/80 after 7 days by microdilution method; assay type: functional; conditions: CNCTC My 235/80, 168 h
[7] = Cytotoxicity against MDCK2-MDR1 cells assessed as cell viability at 20 uM after 24 hrs by MTS assay; assay type: ADME, cell-based, Canis lupus familiaris, MDCK-II; conditions: dog, read-out: Activity
Mycobacterium kansasii [8] = assay: Antimycobacterial activity against Mycobacterium kansasii CNCTC My 6509/96 after 21 days by microdilution method; assay type: functional; conditions: CNCTC My 6509/96, 504 h
HeLa [9] = assay: Cytotoxicity against human HeLa cells assessed as cell viability after 48 hrs by MTS assay; assay type: cell-based
Mycobacterium kansasii [10] = assay: Antimycobacterial activity against Mycobacterium kansasii CNCTC My 235/80 after 14 days by microdilution method; assay type: functional; conditions: CNCTC My 235/80, 336 h
Mycobacterium kansasii [11] = assay: Antimycobacterial activity against Mycobacterium kansasii CNCTC My 6509/96 after 14 days by microdilution method; assay type: functional; conditions: CNCTC My 6509/96, 336 h
[12] = Cytotoxicity against human HeLa cells assessed as cell viability at 20 uM after 48 hrs by MTS assay; assay type: cell-based; conditions: read-out: Activity
[13] = Cytotoxicity against human HuH7 cells assessed as cell viability after 24 hrs by MTS assay; assay type: cell-based; conditions: Huh-7, 24 h
[14] = Cytotoxicity against human HuH7 cells assessed as cell viability at 20 uM after 48 hrs by MTS assay; assay type: cell-based, Huh-7; conditions: read-out: Activity
[15] = tested on: Mycobacterium tuberculosis; assay: Antimycobacterial activity against Mycobacterium tuberculosis CNCTC My 331/88 after 14 days by microdilution method; assay type: functional; conditions: CNCTC My 331/88, 336 h
Mycobacterium kansasii [16] = assay: Antimycobacterial activity against Mycobacterium kansasii CNCTC My 235/80 after 21 days by microdilution method; assay type: functional; conditions: CNCTC My 235/80, 504 h
[17] = Cytotoxicity against MDCK2-MDR1 cells assessed as cell viability at 20 uM after 48 hrs by MTS assay; assay type: ADME, cell-based, Canis lupus familiaris, MDCK-II; conditions: dog, read-out: Activity
[18] = Cytotoxicity against MDCK2-MDR1 cells assessed as cell viability after 24 hrs by MTS assay; assay type: ADME, cell-based; conditions: Canis lupus familiaris, MDCK-II
[19] = Cytotoxicity against human HeLa cells assessed as cell viability at 20 uM after 24 hrs by MTS assay; assay type: cell-based; conditions: read-out: Activity
Mycobacterium kansasii [20] = assay: Antimycobacterial activity against Mycobacterium kansasii CNCTC My 6509/96 after 7 days by microdilution method; assay type: functional; conditions: CNCTC My 6509/96, 168 h
Salmonella typhimurium [21] = assay: Mutagenic activity in Salmonella typhimurium TA98 assessed as reverse mutation at 30 uM by Ames test; assay type: toxicity, organism-based; conditions: salmonella enterica subsp. enterica serovar typhimurium
[22] = Cytotoxicity against MDCK2-MDR1 cells assessed as cell viability after 48 hrs by MTS assay; assay type: ADME, cell-based; conditions: Canis lupus familiaris, MDCK-II
Salmonella typhimurium [23] = assay: Mutagenic activity in Salmonella typhimurium TA100 assessed as reverse mutation at 30 uM by Ames test; assay type: toxicity, organism-based; conditions: salmonella enterica subsp. enterica serovar typhimurium
Klebsiella pneumoniae [24] = assay: Antibacterial activity against Klebsiella pneumoniae D 11750/08 after 24 to 48 hrs by broth microdilution method; assay type: functional
Aspergillus fumigatus = assay: Antifungal activity against Aspergillus fumigatus 231 after 24 to 48 hrs by broth microdilution method; assay type: functional
Pichia kudriavzevii = assay: Antifungal activity against Candida krusei E28 after 24 to 48 hrs by broth microdilution method; assay type: functional
Enterococcus faecalis = assay: Antibacterial activity against Enterococcus faecalis J 14365/08 after 24 to 48 hrs by broth microdilution method; assay type: functional
Staphylococcus aureus [25] = assay: Antibacterial activity against Staphylococcus aureus ATCC 6538 after 24 to 48 hrs by broth microdilution method; assay type: functional
Lichtheimia corymbifera = assay: Antifungal activity against Absidia corymbifera 272 after 24 to 48 hrs by broth microdilution method; assay type: functional
Escherichia coli = assay: Antibacterial activity against Escherichia coli ATCC 8739 after 24 to 48 hrs by broth microdilution method; assay type: functional
Trichosporon asahii = assay: Antifungal activity against Trichosporon asahii 1188 after 24 to 48 hrs by broth microdilution method; assay type: functional
Candida albicans = assay: Antifungal activity against Candida albicans ATCC 44859 after 24 to 48 hrs by broth microdilution method; assay type: functional
Staphylococcus aureus [26] = assay: Antibacterial activity against methicillin-resistant Staphylococcus aureus H 5996/08 after 24 to 48 hrs by broth microdilution method; assay type: functional
Pseudomonas aeruginosa = assay: Antibacterial activity against Pseudomonas aeruginosa ATCC 9027 after 24 to 48 hrs by broth microdilution method; assay type: functional
[27] = tested on: Trichophyton mentagrophytes; assay: Antifungal activity against Trichophyton mentagrophytes 445 after 72 to 120 hrs by broth microdilution method; assay type: functional
Klebsiella pneumoniae [28] = assay: Antibacterial activity against ESBL producing Klebsiella pneumoniae J 14368/08 after 24 to 48 hrs by broth microdilution method; assay type: functional
Candida tropicalis = assay: Antifungal activity against Candida tropicalis 156 after 24 to 48 hrs by broth microdilution method; assay type: functional
Nakaseomyces glabratus = assay: Antifungal activity against Candida glabrata 20/I after 24 to 48 hrs by broth microdilution method; assay type: functional
[29] = tested on: Staphylococcus epidermidis; assay: Antibacterial activity against Staphylococcus epidermidis H 6966/08 after 24 to 48 hrs by broth microdilution method; assay type: functional

Row | Compound | viability at 24 h, 20 µM [1] [%] | MIC99 (Mycobacterium avium [2]) [µM] | IC50 (HeLa [3]) [µM] | MIC99 [4] [µM] | MIC99 (Mycobacterium avium [5]) [µM] | MIC99 (Mycobacterium kansasii [6]) [µM] | viability at 24 h, 20 µM [7] [%] | MIC99 (Mycobacterium kansasii [8]) [µM] | MIC99 (Mycobacterium kansasii [10]) [µM] | MIC99 (Mycobacterium kansasii [11]) [µM] | viability at 48 h, 20 µM [12] [%] | IC50 [13] [µM] | viability at 48 h, 20 µM [14] [%] | MIC99 [15] [µM] | MIC99 (Mycobacterium kansasii [16]) [µM] | viability at 48 h, 20 µM [17] [%] | IC50 [18] [µM] | viability at 24 h, 20 µM [19] [%] | MIC99 (Mycobacterium kansasii [20]) [µM] | Activity (Salmonella typhimurium [21]) | other results
1 | O=[N+]([O-])c1cc(CSc2nnc(-c3cccc(Cl)c3)s2)cc([N+](=O)[O-])c1 | 90.7 | 8 (≈ 3.27 µg/mL) | > 20 | 0.125 (≈ 0.0511 µg/mL) | 16 (≈ 6.54 µg/mL) | 0.25 (≈ 0.102 µg/mL) | 108 | 0.5 (≈ 0.204 µg/mL) | 1 (≈ 0.409 µg/mL) | 0.5 (≈ 0.204 µg/mL) | 16.8 | > 20 | 32.8 | 0.125 (≈ 0.0511 µg/mL) | 1 (≈ 0.409 µg/mL) | 48.6 | > 20 | 78.6 | 0.25 (≈ 0.102 µg/mL) | – | IC50 (HeLa [9]): 2.6 µM
2 | O=[N+]([O-])c1ccc2c(c1)Cc1ccccc1-2 [2-NITROFLUORENE] | – | – | – | – | – | – | – | – | – | – | – | – | – | – | – | – | – | – | – | Toxic | –
3 | O=[N+]([O-])c1cc(CSc2nnc(-c3cccc(Cl)c3)o2)cc([N+](=O)[O-])c1 | 97.9 | 16 (≈ 6.28 µg/mL) | > 20 | 0.06 (≈ 0.0236 µg/mL) | 16 (≈ 6.28 µg/mL) | 0.125 (≈ 0.0491 µg/mL) | 93.3 | 1 (≈ 0.393 µg/mL) | 0.25 (≈ 0.0982 µg/mL) | 0.5 (≈ 0.196 µg/mL) | 34.6 | > 20 | 45.9 | ≤ 0.03 | 0.5 (≈ 0.196 µg/mL) | 57.9 | > 20 | 81.9 | 0.125 (≈ 0.0491 µg/mL) | Non-toxic | IC50 [22]: > 20 µM; Activity (Salmonella typhimurium [23]): Non-toxic
4 | CCCCCCCCCCCc1nnc(SCc2cc([N+](=O)[O-])cc([N+](=O)[O-])c2)o1 | – | 4 (≈ 1.75 µg/mL) | – | 0.25 (≈ 0.109 µg/mL) | 8 (≈ 3.49 µg/mL) | 0.125 (≈ 0.0546 µg/mL) | – | 0.25 (≈ 0.109 µg/mL) | 0.25 (≈ 0.109 µg/mL) | 0.25 (≈ 0.109 µg/mL) | – | – | – | 0.25 (≈ 0.109 µg/mL) | 0.25 (≈ 0.109 µg/mL) | – | – | – | 0.25 (≈ 0.109 µg/mL) | – | MIC95 (Klebsiella pneumoniae [24]): > 125 µM; MIC50 (Aspergillus fumigatus): > 125 µM; MIC80 (Pichia kudriavzevii): > 125 µM; MIC95 (Enterococcus faecalis): > 125 µM; MIC95 (Staphylococcus aureus [25]): > 125 µM; MIC50 (Lichtheimia corymbifera): > 125 µM; MIC95 (Escherichia coli): > 125 µM; MIC80 (Trichosporon asahii): > 125 µM; MIC80 (Candida albicans): > 125 µM; MIC95 (Staphylococcus aureus [26]): > 125 µM; MIC95 (Pseudomonas aeruginosa): > 125 µM; MIC50 [27]: > 125 µM; MIC95 (Klebsiella pneumoniae [28]): > 125 µM; MIC80 (Candida tropicalis): > 125 µM; MIC80 (Nakaseomyces glabratus): > 125 µM; MIC95 [29]: > 125 µM
5 | O=[N+]([O-])c1cc(CSc2nnc(-c3ccc(Cl)cc3)o2)cc([N+](=O)[O-])c1 | – | > 125 | – | – | > 125 | – | – | 0.5 (≈ 0.196 µg/mL) | – | – | – | – | – | – | – | – | – | – | – | – | MIC95 (Klebsiella pneumoniae [24]): > 125 µM; MIC50 (Aspergillus fumigatus): > 125 µM; MIC80 (Pichia kudriavzevii): > 125 µM; MIC95 (Enterococcus faecalis): > 125 µM; MIC95 (Staphylococcus aureus [25]): > 125 µM; MIC50 (Lichtheimia corymbifera): > 125 µM; MIC95 (Escherichia coli): > 125 µM; MIC80 (Trichosporon asahii): > 125 µM; MIC80 (Candida albicans): > 125 µM; MIC95 (Staphylococcus aureus [26]): > 125 µM; MIC95 (Pseudomonas aeruginosa): > 125 µM; MIC50 [27]: > 125 µM; MIC95 (Klebsiella pneumoniae [28]): > 125 µM; MIC80 (Candida tropicalis): > 125 µM; MIC80 (Nakaseomyces glabratus): > 125 µM; MIC95 [29]: > 125 µM
6 | COc1ccc(-c2nnc(SCc3cc([N+](=O)[O-])cc([N+](=O)[O-])c3)o2)cc1 | 91.6 | – | > 20 | – | – | – | 80.6 | 0.5 (≈ 0.194 µg/mL) | – | – | 37.3 | > 20 | 34.1 | – | – | 14.5 | > 20 | 83.9 | – | – | IC50 [22]: 10.6 µM
